Laboratory results taken from patent US7022711B2, “2-(4-Pyridyl)amino-6-dialkoxyphenyl-pyrido[2,3-d]pyrimidin-7-ones” (Warner-Lambert Company, priority 2000, dated 2006).

Legend:
c-Src = biological target: T1, c-Src (Homo sapiens, UniProt P12931); assay: Kinase inhibition assay (DELFIA), c-Src; format: biochemical; details: 40 μM ATP, c-Src 3 units per reaction
T1 construct: purchased Upstate Biotechnology, Lake Placid, N.Y
Method: The inhibition activity of the compounds in Examples 8, 9, 10, 11, and 12 and Reference Compounds A and B were evaluated using the Dissociated Enhanced Lanthanide Fluoroimmuno Assay (DELFIA) (Frank Loganzo and Carolyn Hardy. A sensitive, time-resolved fluorometric assay for the detection of inhibitors of phosphotyrosine kinases. American Biotechnology Laboratory, December 1998). DELFIA plates (EG&G Wallac, Gaithersburg, Md.) were coated overnight with Poly Glu Tyr (4:1) (Sigma, St. Louis, Mo.) at room temperature, washed (DELFIA wash reagent, EG&G Wallac), and spotted with 1 μL inhibitor dilution or DMSO carrier control per well. In some cases, kinase was autophosphorylated prior to analysis by incubating 45 minutes at 4° C. in the presence of 4 mM ATP and 25 mM MgCl2. A typical 100 μL kinase assay reaction contained 20 mM Tris (pH 7.5), 20 mM MgCl2, 50 mM NaCl, 5 mM DTT, and protease inhibitors (Mini EDTA-free protease inhibitor cocktail tablets, Boehringer Mannheim, Indianapolis, Ind.), 40 μM ATP, and an appropriate concentration of inhibitor. The reaction was allowed to continue for 30 minutes at room temperature. Plates were washed, blocked 30 minutes at room temperature (0.5% bovine serum albumin in DELFIA Assay Buffer, EG&G Wallac), and washed. One hundred microliter europium-conjugated antiphosphotyrosine antibody in DELFIA assay buffer was added to each well. Plates were incubated for 1 hour and decanted. One hundred microliter DELFIA enhancement solution (EG&G Wallac) was added and time-resolved fluorescence of the reactions determined using a VICTOR2 1420 multilable counter (EG&G Wallac). Compounds were tested from 10 through 0.0001 μM. c-Src was (Upstate Biotechnology, Lake Placid, N.Y.) was used at 3 units per reaction. The kinase domains from FGFR-1, VEGFR-2, Lck, and PDGF were purified from baculoviral vectors expression systems and were used in the assays at 20 nM.

[1] = system: Human umbilical vein endothelial cells (HUVECs); assay: Serum stimulated HUVEC cell proliferation (Sulphorhodamine B); format: cell-based
Method: Human umbilical vein endothelial cells (HUVECs) (Clonetics, Palo Alto, Calif.) were seeded at 2000 cells per well in growth medium containing 2% serum (EGM, Clonetics) and allowed to attach overnight (37° C., 5% CO2, 100% humidity). C6 rat glioma cells (ATCC) were seeded at 600 cells per well and incubated in F10 medium (GIBCO, Gaithersburg, Md.) supplemented with 15% horse serum, 2.5% fetal bovine serum, and 1 mM glutamine. A90 human ovarian cells (Dr. Kent Crickard, SUNY/AB Medical School) were seeded at 600 cells per well in RPMI1640 (GIBCO) plus 10% fetal bovine serum. Plates were incubated overnight (37° C., 5% CO2, 100% humidity) to allow the cells to attach. Test compound dilutions were added to the appropriate wells, and the incubation was continued for 4 additional days. Monolayers were fixed in 10% trichloroacetic acid (30 minutes at 4° C.), washed with distilled water, and stained with Sulphorhodamine B (0.075% in 1% acetic acid) (Sigma). Plates were washed in 1% acetic acid, and the bound dye was solubilized in 100 μL unbuffered Tris base. Absorbance was measured at 540 nm using a reference filter wavelength of 630 nm. Inhibitor potency (IC50) versus cellular proliferation was determined, and endothelial cell selectivity was assessed by comparing the inhibition of HUVEC proliferation to A90 and C6 tumor cell proliferation (Table 3).

[2] = Metabolic stability, human liver S9 fraction; format: in vitro ADME; details: human liver S9, 5 μM, 37° C., 1.0 mM NADPH
Method: Compounds were individually incubated (5 μM in DMSO) with human and mice liver S9 fractions in 50 mM KHPO4 buffer at 37° C. in the presence of 1.0 mM NADPH and additional cofactors. At 0, 10, 20, and 40 minutes, 100 μL aliquots were removed and added to 300 μL of acetonitrile. Standard curves were prepared in a similar manner with each compound. Samples were analyzed for parent concentration by LC-MS/MS. The in vitro metabolic half-life was determined from the concentration-time plots using WinNonlin. These in vitro data represent the rate of oxidative, hydrolytic, and conjugative metabolism.

[3] = system: VEGFR-2 and FGFR-1 compared to PDGFR, Lck, and c-Src; assay: Kinase selectivity comparison across the kinase inhibition assays; format: biochemical; details: compared with reference Compounds A and B
Text: The invention compounds have been evaluated in the in vitro biological assays described in U.S. Pat. No. 5,733,914. […] Reference Compound A has a 2,6-dichloro phenyl group at the 6-position. Reference Compound B has a 3,5-dimethoxyphenyl group at the 6-position and a substituted phenylamino at the 2-position. The invention compound of Example 8 has the required 3,5-dimethoxyphenyl at the 6-position and the required (4-pyridyl)amino at the 2-position. The structures are shown in Table 1, along with their respective inhibitory activities against various tyrosine kinases, when evaluated in the models described in U.S. Pat. No. 5,733,914.
The preferred kinase selectivity profile of the compound in Example 8 is shared by the other representative compounds of the invention shown in Table 2. The inhibition activity of the compounds in Examples 8, 9, 10, 11, and 12 and Reference Compounds A and B were evaluated using the Dissociated Enhanced Lanthanide Fluoroimmuno Assay (DELFIA) (Frank Loganzo and Carolyn Hardy. A sensitive, time-resolved fluorometric assay for the detection of inhibitors of phosphotyrosine kinases. American Biotechnology Laboratory, December 1998). […] One hundred microliter DELFIA enhancement solution (EG&G Wallac) was added and time-resolved fluorescence of the reactions determined using a VICTOR2 1420 multilable counter (EG&G Wallac). […]

6-(3,5-Dimethoxy-phenyl)-8-ethyl-2-(pyridin-4-ylamino)-8H-pyrido[2,3-d]pyrimidin-7-one [Example 8]
IC50 (c-Src): 36.5 µM
IC50 ([1]; 2% serum growth medium, 4 days with compound): 0.009 µM
selectivity for serum-stimulated endothelial cell proliferation ([1]; HUVEC compared to A90 and C6 tumor cell proliferation): selective inhibitors
HS9 in vitro metabolic half-life [2]: >3.33 h
selectivity for VEGFR-2 and FGFR-1 compared to PDGFR, Lck, and c-Src [3]: more selective
